Legend:
Assay type in all cases: in vivo
[1] = system: barnyardgrass (Echinochloa crus-galli); experiment: Test A preemergence soil spray, visual injury rating 0-100; settings: 10 days
Method in brief: (§1)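 Greenhouse test: loam/sand pots received a surfactant-containing formulation, as a preemergence directed soil spray or a postemergence spray on young plants. Injury was judged visually at day 10 relative to untreated controls.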

[2] = system: blackgrass (Alopecurus myosuroides); experiment: as above; settings: 10 days
Method in brief: as §1

[3] = system: corn (Zea mays); experiment: as above; settings: 10 days
Method in brief: as §1

[4] = system: green foxtail (Setaria viridis); experiment: as above; settings: 10 days
Method in brief: as §1

[5] = system: kochia (Bassia scoparia); experiment: as above; settings: 10 days
Method in brief: as §1

[6] = system: oat, wild (wild oat, Avena fatua); experiment: as above; settings: 10 days
Method in brief: as §1

[7] = system: palmer (palmer amaranth, palmer pigweed, Amaranthus palmeri); experiment: as above; settings: 10 days
Method in brief: as §1

[8] = system: ragweed (common ragweed, Ambrosia artemisiifolia); experiment: as above; settings: 10 days
Method in brief: as §1

[9] = system: ryegrass, Italian (italian ryegrass, Lolium multiflorum); experiment: as above; settings: 10 days
Method in brief: as §1

[10] = system: soybean (Glycine max); experiment: as above; settings: 10 days
Method in brief: as §1

[11] = system: wheat (Triticum aestivum); experiment: as above; settings: 10 days
Method in brief: as §1

[12] = system: barnyardgrass (Echinochloa crus-galli); experiment: Test A postemergence application, visual injury rating 0-100
Method in brief: as §1

[13] = system: blackgrass (Alopecurus myosuroides); experiment: as above
Method in brief: as §1

[14] = system: corn (Zea mays); experiment: as above
Method in brief: as §1

[15] = system: galium (catchweed bedstraw, Galium aparine); experiment: as above
Method in brief: as §1

[16] = system: green foxtail (Setaria viridis); experiment: as above
Method in brief: as §1

[17] = system: horseweed (Erigeron canadensis); experiment: as above
Method in brief: as §1

[18] = system: kochia (Bassia scoparia); experiment: as above
Method in brief: as §1

[19] = system: oat, wild (wild oat, Avena fatua); experiment: as above
Method in brief: as §1

[20] = system: palmer (palmer amaranth, palmer pigweed, Amaranthus palmeri); experiment: as above
Method in brief: as §1

[21] = system: ragweed (common ragweed, Ambrosia artemisiifolia); experiment: as above
Method in brief: as §1

[22] = system: ryegrass, Italian (italian ryegrass, Lolium multiflorum); experiment: as above
Method in brief: as §1

[23] = system: soybean (Glycine max); experiment: as above
Method in brief: as §1

[24] = system: wheat (Triticum aestivum); experiment: as above
Method in brief: as §1

[25] = system: barnyardgrass (Echinochloa crusgalli); experiment: Test B flooded paddy test, visual plant response rating 0-100; settings: 250 g ai/ha, Flood, applied to paddy water, evaluated after 13 days
Method in brief: (§2)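 Each species was raised to two leaves before flooding to a 3 cm depth and dosing the water with compound. Injury was assessed by eye after 13 days under greenhouse conditions.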

[26] = system: ducksalad (Heteranthera limosa); experiment: as above; settings: 250 g ai/ha, Flood, applied to paddy water, evaluated after 13 days
Method in brief: as §2

[27] = system: rice (Oryza sativa); experiment: as above; settings: 250 g ai/ha, Flood, applied to paddy water, evaluated after 13 days
Method in brief: as §2

[28] = system: sedge, umbrella (small-flower umbrella sedge, Cyperus difformis); experiment: as above; settings: 250 g ai/ha, Flood, applied to paddy water, evaluated after 13 days
Method in brief: as §2

[29] = 62 g ai/ha, 0 = no effect, 100 = complete control
[30] = 62 g ai/ha, postemergence, 10 days, 0 = no effect, 100 = complete control
[31] = Postemergence, 16 g ai/ha, greenhouse 10 days, 0 no effect, 100 complete control

C=CC1(C(=O)NC2CC(C(=O)OC)C2)CN(c2cc(F)cc(F)c2)C(=O)O1 (stereo not shown) [Compound 173]
Barnyardgrass plant response rating ([1]; 16 g ai/ha, 0 to 100 scale): 40
Barnyardgrass plant response rating (0-100) [1, 29]: 100
Blackgrass plant response rating ([2]; 16 g ai/ha, 0 to 100 scale): 90
Blackgrass plant response rating (0-100) [2, 29]: 90
Corn plant response rating ([3]; 16 g ai/ha, 0 to 100 scale): 50
Corn plant response rating (0-100) [3, 29]: 90
Foxtail, Green plant response rating ([4]; 16 g ai/ha, 0 to 100 scale): 90
Foxtail, Green plant response rating (0-100) [4, 29]: 100
Kochia plant response rating ([5]; 16 g ai/ha, 0 to 100 scale): 10
Kochia plant response rating (0-100) [5, 29]: 80
Oat, Wild plant response rating ([6]; 16 g ai/ha, 0 to 100 scale): 70
Oat, Wild plant response rating (0-100) [6, 29]: 90
Pigweed, Palmer plant response rating ([7]; 16 g ai/ha, 0 to 100 scale): 20
Pigweed, Palmer plant response rating (0-100) [7, 29]: 90
Ragweed plant response rating ([8]; 16 g ai/ha, 0 to 100 scale): 0
Ragweed plant response rating (0-100) [8, 29]: 0
Ryegrass, Italian plant response rating ([9]; 16 g ai/ha, 0 to 100 scale): 80
Ryegrass, Italian plant response rating (0-100) [9, 29]: 90
Soybean plant response rating ([10]; 16 g ai/ha, 0 to 100 scale): 30
Soybean plant response rating (0-100) [10, 29]: 70
Wheat plant response rating ([11]; 16 g ai/ha, 0 to 100 scale): 90
Wheat plant response rating (0-100) [11, 29]: 100
Barnyardgrass plant response rating (0-100) [12, 30]: 90
Barnyardgrass plant response rating (0 to 100 scale) [12, 31]: 80
Blackgrass plant response rating (0-100) [13, 30]: 90
Blackgrass plant response rating (0 to 100 scale) [13, 31]: 90
Corn plant response rating (0-100) [14, 30]: 100
Corn plant response rating (0 to 100 scale) [14, 31]: 100
Galium plant response rating (0-100) [15, 30]: 80
Galium plant response rating (0 to 100 scale) [15, 31]: 80
Foxtail, Green plant response rating (0-100) [16, 30]: 90
Foxtail, Green plant response rating (0 to 100 scale) [16, 31]: 90
Horseweed plant response rating (0-100) [17, 30]: 50
Horseweed plant response rating (0 to 100 scale) [17, 31]: 0
Kochia plant response rating (0-100) [18, 30]: 90
Kochia plant response rating (0 to 100 scale) [18, 31]: 90
Oat, Wild plant response rating (0-100) [19, 30]: 90
Oat, Wild plant response rating (0 to 100 scale) [19, 31]: 90
Pigweed, Palmer plant response rating (0-100) [20, 30]: 90
Pigweed, Palmer plant response rating (0 to 100 scale) [20, 31]: 90
Ragweed plant response rating (0-100) [21, 30]: 80
Ragweed plant response rating (0 to 100 scale) [21, 31]: 0
Ryegrass, Italian plant response rating (0-100) [22, 30]: 90
Ryegrass, Italian plant response rating (0 to 100 scale) [22, 31]: 80
Soybean plant response rating (0-100) [23, 30]: 50
Soybean plant response rating (0 to 100 scale) [23, 31]: 50
Wheat plant response rating (0-100) [24, 30]: 90
Wheat plant response rating (0 to 100 scale) [24, 31]: 90
Plant response rating, Barnyardgrass (0 to 100 scale, 0 is no effect and 100 is complete control) [25]: 90
Plant response rating, Ducksalad (0 to 100 scale, 0 is no effect and 100 is complete control) [26]: 95
Plant response rating, Rice (0 to 100 scale, 0 is no effect and 100 is complete control) [27]: 75
Plant response rating, Sedge, Umbrella (0 to 100 scale, 0 is no effect and 100 is complete control) [28]: 100

Source: patent publication US20260285850A1, “SUBSTITUTED OXAZOLIDINONES AND IMIDAZOLINONES AS HERBICIDES” (FMC CORPORATION, priority 2023, published 2026)
